According to patent US20220184071A1, “GEPOTIDACIN FOR USE IN THE TREATMENT OF BACTERIAL URINARY TRACT INFECTIONS” (GlaxoSmithKline Intellectual Property Development Limited, priority 2019, published 2022):
Values after ≈ are worked out from the molar mass of the structure shown.

Assays:
[1] = Saliva exposure, healthy volunteers; format: in vivo, human; conditions: 1500 mg oral single dose
Protocol: Antibiotic target site exposures play a key role as suboptimal levels may lead to therapeutic failure and resistance. Across multiple clinical studies, exposures to gepotidacin were assessed in plasma and other matrices, such as urine, saliva, epithelial lining fluid (ELF) and Alveolar Macrophages (AM).
Bronchoalveolar lavage samples were collected to determine gepotidacin exposures in ELF and AM following a single 1000 mg IV infusion over 2 hours to healthy subjects. Saliva exposure was assessed in healthy volunteers following 1500 mg oral single dose. Gepotidacin exposures in urine was assessed in women with acute uUTI following 1500 mg BID oral doses for 5 days.

Bacteroides fragilis = assay: MIC by broth microdilution, drug-resistant isolates; format: cell-based
Protocol: (§1) Additional analysis was performed from the results of the study described in Method 1 above, to determine the in vitro activity of gepotidacin against gram-negative and gram-positive anaerobic organisms with resistance to ceftriaxone, clindamycin, imipenem, metronidazole, moxifloxacin and piperacillin/tazobactam.

Bacteroides ovatus = assay: as above; format: cell-based
Protocol: as §1

Bacteroides spp = assay: as above; format: cell-based
Protocol: as §1

Bacteroides vulgatus = assay: as above; format: cell-based
Protocol: as §1

Bacteroides uniformis = assay: as above; format: cell-based
Protocol: as §1

Bacteroides stercoris = assay: as above; format: cell-based; conditions: ceftriaxone R, 2 isolates
Protocol: as §1

[2] = tested on: Bacteroides thetaiotaomicron; assay: as above; format: cell-based
Protocol: as §1

Fusobacterium spp. = assay: MIC by CLSI agar dilution, Example 6 second study; format: cell-based; conditions: 3 isolates
From the text: (§2) A second study tested gepotidacin by CLSI agar dilution against gram-positive and gram-negative anaerobic bacterial isolates from the GlaxoSmithKline Upper Providence culture collection. Amoxicillin, azithromycin, levofloxacin, and cefuroxime were included as comparators.

Prevotella spp. = assay: MIC by CLSI agar dilution, Example 6 second study; format: cell-based; conditions: 1 isolate
From the text: as §2

Clostridium bifermentans = assay: MIC by CLSI agar dilution, Example 6 second study; format: cell-based; conditions: Paraclostridium bifermentans; 1 isolate
From the text: as §2

Peptostreptococcus spp. = assay: MIC by CLSI agar dilution, Example 6 second study; format: cell-based; conditions: 4 isolates
From the text: as §2

S. epidermidis = assay: MIC by CLSI broth microdilution, Example 5 second study (skin and soft tissue isolates); format: cell-based; conditions: Staphylococcus epidermidis; 13 isolates, 2013-2014
From the text: A second study tested gepotidacin by CLSI broth microdilution against bacterial isolates collected from patients with acute bacterial skin and soft tissue infections between 2013-2014. Amoxicillin/clavulanic acid, linezolid, fusidic acid, ceftriaxone, ceftaroline, vancomycin, penicillin, quinupristin/dalfopristin, erythromycin, clindamycin, meropenem, tetracycline, chloramphenicol, flucloxacillin, telavancin, daptomycin, trimethoprim/sulfamethoxazole, gentamicin, levofloxacin, tigecycline and cefuroxime were included as comparators. MICs were determined by broth microdilution according to CLSI methods.

E. coli ALL = assay: Immunocompetent mouse kidney infection (pyelonephritis/UTI) model PK/PD; format: in vivo
Protocol: PK and PD studies using gepotidacin were conducted in murine (male CD-1 mice) thigh and kidney infections. The administered doses ranged from 1 to 200 mg/kg SC every 6 hours starting 1h post infection. Infected tissues were evaluated for bacterial burden at 24 h post infection (baseline controls at 1 h post infection).
Efficacy was determined against E. coli ALL, 997577, ATCC25922, IR5 and NCTC13441 (MICs of 1 to 4 μg/mL) in thigh-infected neutropenic (I−) mice and against E. coli ALL in kidney-infected immunocompetent (I+) and I− mice. The PopPK model was used to determine GEP exposures associated with efficacy. PK-PD analyses were conducted using Phoenix WinNonLin 6.3 (Pharsight). The change in login colony forming units (CFU) from baseline were correlated with free drug (f) AUC:MIC using an inhibitory model from the Phoenix library, and model parameter values for each isolate were used to calculate the plasma fAUC:MIC associated with stasis, 1- or 2-login reductions in CFU.
PD studies were conducted using thigh and/or kidney infection models in neutropenic or competent mice (N=5/group). Mice were infected with a bacterial suspension in log phase: 100 μL in the left thigh muscle or 50 μL in each of both kidneys (100 μl total). Final inocula across all isolates were 6.0 to 7.0 login CFU/mouse. Dose-ranging studies were conducted with 5 isolates (see Table 1). Starting 1 hr after infection, GEP was given SC (0.2 mL/mouse) at discrete doses of 1-200 mg/kg every 6 hours (q6) for a 24-hour period (4 doses in total). Mice were euthanized 24 hr after start of therapy (6 hr after the last dose), and infected thighs or kidneys were processed to determine viable bacterial counts (CFU). Baseline CFU were obtained from untreated mice at 1 hr post infection and growth control CFU from saline-treated mice at 24 hr.
NCA analyses were conducted with the simulated data.
PK-PD analysis was conducted using Phoenix WinNonLin 6.3 (Pharsight): • Log10 colony forming units (CFU) from each group were correlated with PK-PD parameters using several inhibitory models from the Phoenix library. • Model parameter values for each isolate were used to calculate the PK-PD parameter value associated with stasis, 1-log or 2-log reductions from baseline 1 h controls.

[3] = MIC, conclusion to Example 1 Methods 1 and 2; format: cell-based; conditions: at least one strain of every organism listed
Protocol: Antimicrobial activity was determined by broth microdilution using the CLSI recommended procedure.
(§3) Antimicrobial activity was determined in a second study by […] using the CLSI recommended procedure in serial two-fold dilutions and the minimum inhibitory concentration (MIC) was determined as the lowest concentration of the compound that inhibited visible growth.

A. baumannii = assay: MIC by CLSI agar dilution, Example 1 Method 2; format: cell-based, Acinetobacter baumannii; conditions: n = 60
Protocol: as §3
MICs were determined according to CLSI agar dilution guidelines.

E. coli = assay: Gepotidacin MIC90 for common uUTI pathogens (stated in conclusions); format: cell-based; conditions: Escherichia coli

## O=c1ccc2ncc(=O)n3c2n1C[C@H]3CN1CCC(NCc2cc3c(cn2)OCCC3)CC1 [gepotidacin, (2R)-2-({4-[(3,4-dihydro-2H-pyrano[2,3-c]pyridin-6-ylmethyl)amino]-1-piperidinyl}methyl)-1,2-dihydro-3H,8H-2a,5,8a-triazaacenaphthylene-3,8-dione]
[1]
  ratio of saliva AUC to unbound plasma AUC: close to unity
Bacteroides fragilis; ceftriaxone R, 24 isolates
  Gepotidacin MIC range: 0.25 to 16 µg/mL
Bacteroides fragilis; clindamycin R, 23 isolates
  Gepotidacin MIC range: 0.06 to 16 µg/mL
Bacteroides fragilis; imipenem R, 2 isolates
  Gepotidacin MIC range: 1 to 4 µg/mL
Bacteroides fragilis; moxifloxacin R, 20 isolates
  Gepotidacin MIC range: 0.25 to 8 µg/mL
Bacteroides fragilis; pip/tazo R, 2 isolates
  Gepotidacin MIC range: 1 to 4 µg/mL
Bacteroides ovatus; ceftriaxone R, 5 isolates
  Gepotidacin MIC range: 0.5 to 2 µg/mL
Bacteroides ovatus; clindamycin R, 5 isolates
  Gepotidacin MIC range: 0.25 to 4 µg/mL
Bacteroides ovatus; moxifloxacin R, 3 isolates
  Gepotidacin MIC range: 0.5 to 4 µg/mL
Bacteroides spp; ceftriaxone R, 61 isolates
  Gepotidacin MIC range: ≤0.015 to 6 µg/mL
Bacteroides spp; clindamycin R, 51 isolates
  Gepotidacin MIC range: 0.06 to 16 µg/mL
Bacteroides spp; moxifloxacin R, 35 isolates
  Gepotidacin MIC range: 0.25 to 8 µg/mL
Bacteroides vulgatus; ceftriaxone R, 7 isolates
  Gepotidacin MIC range: 0.06 to 4 µg/mL
Bacteroides vulgatus; clindamycin R, 4 isolates
  Gepotidacin MIC range: 0.06 to 0.5 µg/mL
Bacteroides vulgatus; moxifloxacin R, 3 isolates
  Gepotidacin MIC range: 0.25 to 4 µg/mL
Bacteroides uniformis; ceftriaxone R, 2 isolates
  Gepotidacin MIC range: 0.5 to 2 µg/mL
Bacteroides uniformis; moxifloxacin R, 1 isolate
  Gepotidacin MIC range: 0.5 µg/mL
Bacteroides stercoris
  Gepotidacin MIC range: ≤0.015 to 0.5 µg/mL
[2]; ceftriaxone R, 20 isolates
  Gepotidacin MIC range: 0.5 to 8 µg/mL
[2]; clindamycin R, 18 isolates
  Gepotidacin MIC range: 0.5 to 8 µg/mL
[2]; moxifloxacin R, 7 isolates
  Gepotidacin MIC range: 0.5 to 8 µg/mL
Fusobacterium spp.
  MIC: 0.12 to 1 µg/mL (≈ 0.268 to 2.23 µM)
Prevotella spp.
  MIC: 4 µg/mL (≈ 8.92 µM)
Clostridium bifermentans
  MIC: 0.06 µg/mL (≈ 0.134 µM)
Peptostreptococcus spp.
  MIC: 0.12 to 2 µg/mL (≈ 0.268 to 4.46 µM)
S. epidermidis
  MIC90: 0.25 µg/mL (≈ 0.557 µM)
E. coli ALL; I+ (non-neutropenic) mice
  PK-PD target (fAUC/MIC) in immunocompetent vs neutropenic mice: reduced by approx. half
E. coli ALL; Strain ALL, Competent UTI
  Daily fAUC/MIC for 1-log Drop: 3.3
  Daily fAUC/MIC for 2-log Drop: 8.1
  Daily fAUC/MIC for Stasis: 0.7
[3]
  MIC: ≤ 8 µg/mL
A. baumannii; Acinetobacter baumannii
  MIC50: 32 µg/mL (≈ 71.3 µM)
  MIC90: 64 µg/mL (≈ 143 µM)
A. baumannii
  Number of Isolates at Gepotidacin MIC 8 mg/L: 7
  Number of Isolates at Gepotidacin MIC ≥16 mg/L: 53
E. coli
  MIC90: 4 µg/mL (≈ 8.92 µM)
